Measured values: patent US20080153886A1, “Use Of Heterocyclic Compounds As Neurogenic Agents” (NEUROPHARMA, S.A., priority 2005, published 2008)

Each compound was assayed on Neurospheres of the cerebral cortex and hippocampus of 2-day-old postnatal rats (assay: Neurosphere differentiation test (immunofluorescence with anti-GFAP / anti-MAP2 antibodies)). Settings: neurospheres grown 7 days in suspension with compound, 24 h on polylysine slides; versus basal (no compound); confocal images.
Format: cell-based, rat
Procedure: Neurospheres of the cerebral cortex and hippocampus of 2-day-old postnatal rats were grown in suspension culture for 7 days in the presence or absence of a formula (I) compound according to the invention, after which they were transferred to slides covered with polylysine and 24 h later (once adhered) immunofluorescence analyses were performed with anti-GFAP antibodies to view the astrocyte differentiation, or with anti-MAP2 to view neuronal differentiation. The images were captured on a TCS SP2 confocal microscope (Leica Microsystems).

Row | SMILES | astrocyte differentiation of cells present in isolated neurospheres (anti-GFAP immunofluorescence) | neuronal differentiation of cells present in isolated neurospheres (anti-MAP2 immunofluorescence)
1 | O=c1sn(-c2ccc(Oc3ccccc3)cc2)c(=O)n1Cc1ccccc1 [compound [4], 4-benzyl-2-(4-phenoxy-phenyl)-[1,2,4]thiadiazolidine-3,5-dione] | induces | induces
2 | O=c1sn(Cc2ccccc2)c(=O)n1Cc1ccccc1 [compound [1], 2,4-dibenzyl-[1,2,4]thiadiazolidine-3,5-dione] | induces | induces
3 | O=c1sn(C(c2ccccc2)c2ccccc2)c(=O)n1Cc1ccccc1 [compound [3], 2-Benzhydryl-4-benzyl-[1,2,4]thiadiazolidine-3,5-dione] | induces | induces
4 | O=c1sn(-c2cccc3ccccc23)c(=O)n1Cc1ccccc1 [compound [2], 4-benzyl-2-naphthalene-1-yl-[1,2,4]thiadiazolidine-3,5-dione] | induces | induces
